Test results from patent publication US11708348B2, “Protease inhibitors for treatment of coronavirus infections” (The Scripps Research Institute, priority 2021, dated 2023).

What follows are molecules tested on SARS-CoV-2 strain USA-WA1/2020 (assay: microbe, parasite or virus in culture). Details: Severe acute respiratory syndrome coronavirus 2, HeLa-ACE2, 24 h, HeLa-ACE2 cells, SARS-CoV-2 infection, 24 h; cells given as a bound; read-out: EC50, uM (Hela).
Format: cell-based
O=C(N[C@@H](C[C@@H]1CCNC1=O)C(=O)COc1c(F)c(F)cc(F)c1F)C1CCN(C(=O)C2CCCC2)CC1 [Compound 27, l-(cyclopentane-carbonyl)-N-((S)-3-oxo-1-((S)-2-oxopyrrolidin-3-yl)-4-(2,3,5,6-tetrafluorophenoxy)butan-2-yl)piperidine-4-carboxamide] showed an EC50 of over 1 µM.

Same assay, conditions: Severe acute respiratory syndrome coronavirus 2, HeLa-ACE2, 24 h, HeLa-ACE2 cells, SARS-CoV-2 infection, 24 h; class symbols; read-out: EC50, uM (Hela)
Cc1ccccc1NC(=O)C(=O)N[C@@H](Cc1ccccn1)C(=O)N[C@@H](C[C@@H]1CCNC1=O)C(=O)COc1c(F)c(F)cc(F)c1F [Compound 148, N1-((S)-1-oxo-1-(((S)-3-oxo-1-((S)-2-oxopyrrolidin-3-yl)-4-(2,3,5,6-tetrafluorophenoxy)butan-2-yl)amino)-3-(pyridin-2-yl)propan-2-yl)-N2-(o-tolyl)oxalamide] gave an EC50 of 0.05 to 0.2 µM.
O=C(Nc1ccccc1F)C(=O)N1[C@@H]2C[C@@H]2C[C@H]1C(=O)N[C@@H](C[C@@H]1CCNC1=O)C(=O)COC(F)(F)F [Compound 265, (1R,S 5R)-2-(2-((2-fluorophenyl)amino)-2-oxoacetyl)-N-((S)-3-oxo-1-((S)-2-oxopyrrolidin-3-yl)-4-(trifluoromethoxy)butan-2-yl)-2-azabicyclo-[3.1.0]-hexane-3-carboxamide] gave an EC50 of 0.05 to 0.2 µM.
Work on Cc1c(F)cccc1NC(=O)C(=O)N[C@@H](CC(C)C)C(=O)N[C@@H](C[C@@H]1CCNC1=O)C(=O)COc1c(F)c(F)cc(F)c1F [Compound 89, N1-(3-fluoro-2-methylphenyl)-N2-((S)-4-methyl-1-oxo-1-(((S)-3-oxo-1-((S)-2-oxopyrrolidin-3-yl)-4-(2,3,5,6-tetrafluorophenoxy)butan-2-yl)amino)pentan-2-yl)oxalamide] yielded an EC50 of under 0.05 µM.
Molecule O=C1NCC[C@H]1C[C@H](NC(=O)[C@@H]1[C@H]2CCC[C@H]2CN1C(=O)[C@H](O)CC1CC1)C(=O)COC(F)(F)F [Compound 393, (1S,3aR,6aS)-2-((R)-3-cyclopropyl-2-hydroxypropanoyl)-N-((S)-3-oxo-1-((S)-2-oxopyrrolidin-3-yl)-4-(trifluoromethoxy)butan-2-yl)octahydrocyclo-penta[c]pyrrole-1-carboxamide] has an EC50 of under 0.05 µM.
Cc1cc(C(=O)N[C@H](C(=O)N[C@@H](CC(C)C)C(=O)N[C@@H](C[C@@H]2CCNC2=O)C(=O)COc2c(F)c(F)cc(F)c2F)C(C)(C)C)no1 [Compound 118, N-((S)-3,3-dimethyl-1-(((S)-4-methyl-1-oxo-1-(((S)-3-oxo-1-((S)-2-oxopyrrolidin-3-yl)-4-(2,3,5,6-tetrafluorophenoxy)butan-2-yl)amino)pentan-2-yl)amino)-1-oxobutan-2-yl)-5-methylisoxazole-3-carboxamide] was tested, and the EC50 was 0.2 to 0.5 µM.
Molecule CC(C)C[C@H](NC(=O)OCc1cccc(Cl)c1)C(=O)N[C@@H](C[C@@H]1CCNC1=O)C(=O)COc1c(F)c(F)cc(F)c1F [Compound 22, 3-chlorobenzyl ((S)-4-methyl-1-oxo-1-(((S)-3-oxo-1-((S)-2-oxopyrrolidin-3-yl)-4-(2,3,5,6-tetrafluorophenoxy)butan-2-yl)amino)pentan-2-yl)carbamate] has an EC50 of 0.2 to 0.5 µM.
For CC(C)C[C@H](NC(=O)C(=O)NC12CC(C1)C2)C(=O)N[C@@H](C[C@@H]1CCNC1=O)C(=O)COC(F)(F)F [Compound 191, N1-(bicyclo[1.1.1]-pentan-1-yl)-N2-((S)-4-methyl-1-oxo-1-(((S)-3-oxo-1-((S)-2-oxopyrrolidin-3-yl)-4-(trifluoromethoxy)butan-2-yl)amino)pentan-2-yl)oxalamide], the EC50 was under 0.05 µM.
Molecule O=C(N[C@@H](Cc1ccccc1)C(=O)N[C@@H](C[C@@H]1CCNC1=O)C(=O)COc1c(F)c(F)cc(F)c1F)c1cc2cc(F)ccc2[nH]1 [Compound 14, 5-fluoro-N-((S)-1-oxo-1-(((S)-3-oxo-1-((S)-2-oxopyrrolidin-3-yl)-4-(2,3,5,6-tetrafluorophenoxy)butan-2-yl)amino)-3-phenylpropan-2-yl)-1H-indole-2-carboxamide] has an EC50 of 0.05 to 0.2 µM.
CC(C)C[C@H](NC(=O)C(=O)NC1(C(F)(F)F)CC1)C(=O)N[C@@H](C[C@@H]1CCNC1=O)C(=O)COC(F)(F)F [Compound 237, N1-((S)-4-methyl-1-oxo-1-(((S)-3-oxo-1-((S)-2-oxopyrrolidin-3-yl)-4-(trifluoromethoxy)butan-2-yl)amino)pentan-2-yl)-N2-(1-(trifluoromethyl)-cyclopropyl)oxalamide] was tested, and the EC50 was under 0.05 µM.
COc1ccc(C[C@H](NC(=O)c2cc3cc(F)ccc3[nH]2)C(=O)N[C@@H](CC2CCNC2=O)C(=O)COc2c(F)c(F)cc(F)c2F)cc1 (stereo partly drawn) [Compound 19, 5-fluoro-N-((2S)-3-(4-methoxyphenyl)-1-oxo-1-(((2S)-3-oxo-1-(2-oxopyrrolidin-3-yl)-4-(2,3,5,6-tetrafluorophenoxy)butan-2-yl)amino)propan-2-yl)-1H-indole-2-carboxamide] showed an EC50 of 0.2 to 0.5 µM.
For CC(C)(C)CC(O)C(=O)N1C[C@@H]2CCC[C@@H]2[C@H]1C(=O)N[C@@H](C[C@@H]1CCNC1=O)C(=O)COC(F)(F)F (stereo partly drawn) [Compound 348, (1S,3aR,6aS)-2-(2-hydroxy-4,4-dimethylpentanoyl)-N-((S)-3-oxo-1-((S)-2-oxopyrrolidin-3-yl)-4-(trifluoromethoxy)butan-2-yl)octahydrocyclo-penta[c]pyrrole-1-carboxamide], the EC50 was under 0.05 µM.

Same assay, conditions: Severe acute respiratory syndrome coronavirus 2, HeLa-ACE2, 24 h, HeLa-ACE2 cells, SARS-CoV-2 infection, 24 h; read-out: EC50, uM (Hela)
Work on CC(C)CC(F)(F)C(=O)N1CC2(CC2)C[C@H]1C(=O)N[C@@H](C[C@@H]1CCNC1=O)C(=O)COC(F)(F)F [Compound 623, (S)-5-(2,2-difluoro-4-methylpentanoyl)-N-((S)-3-oxo-1-((S)-2-oxopyrrolidin-3-yl)-4-(trifluoromethoxy)butan-2-yl)-5-azaspiro[2.4]heptane-6-carboxamide] yielded an EC50 of under 0.05 µM.
CC1(C[C@H](NC(=O)C(=O)NC2(C)CC2)C(=O)N[C@@H](C[C@@H]2CCNC2=O)C(=O)COC(F)(F)F)CC1 [Compound 577, Nl-(l-methylcyclo-propyl)-N2-(3-(1-methylcyclopropyl)-1-oxo-1-(((S)-3-oxo-1-((S)-2-oxopyrrolidin-3-yl)-4-(trifluoromethoxy)butan-2-yl)amino)propan-2-yl)oxalamide] showed an EC50 of under 0.05 µM.
With O=C(NC1CC(F)(F)C1)C(=O)N1C[C@@H]2CCC[C@@H]2[C@H]1C(=O)N[C@@H](C[C@@H]1CCNC1=O)C(=O)COC(F)(F)F [Compound 523, (1S,3aR,6aS)-2-(2-((3,3-difluorocyclobutyl)-amino)-2-oxoacetyl)-N-((S)-3-oxo-1-((S)-2-oxopyrrolidin-3-yl)-4-(trifluoromethoxy)butan-2-yl)octahydrocyclo-penta[c]pyrrole-1-carboxamide] the EC50 was under 0.05 µM.
Cc1cc(C(=O)N2C[C@@H]3CCC[C@@H]3[C@H]2C(=O)N[C@@H](C[C@@H]2CCNC2=O)C(=O)COC(F)(F)F)no1 [Compound 545, (1S,3aR,6aS)-2-(5-methylisoxazole-3-carbonyl)-N-((S)-3-oxo-1-((S)-2-oxopyrrolidin-3-yl)-4-(trifluoromethoxy)butan-2-yl)octahydrocyclopenta[c]pyrrole-1-carboxamide] gave an EC50 of 0.05 to 0.2 µM.
In the case of CC(C)CC(C)(C)C(=O)N1CC2(CC2)C[C@H]1C(=O)N[C@@H](C[C@@H]1CCNC1=O)C(=O)COC(F)(F)F [Compound 625, (S)-N-((S)-3-oxo-1-((S)-2-oxopyrrolidin-3-yl)-4-(trifluoromethoxy)butan-2-yl)-5-(2,2,4-trimethylpentanoyl)-5-azaspiro[2.4]heptane-6-carboxamide], the EC50 is reported as under 0.05 µM.
With CC(C)CC(C(=O)N[C@@H](C[C@@H]1CCNC1=O)C(=O)COC(F)(F)F)n1cc(C(=O)NC(C)(C)C)nn1 (stereo partly drawn) [Compound 592, N-(tert-butyl)-1-(4-methyl-1-oxo-1-(((S)-3-oxo-1-((S)-2-oxopyrrolidin-3-yl)-4-(trifluoromethoxy)butan-2-yl)amino)pentan-2-yl)-1H-1,2,3-triazole-4-carboxamide] the EC50 was 0.05 to 0.2 µM.
Work on COc1cccc(NC(=O)C(=O)N2CC3(CC3)C[C@H]2C(=O)N[C@@H](C[C@@H]2CCNC2=O)C(=O)COC(F)(F)F)c1F [Compound 599, (S)-5-(2-((2-fluoro-3-methoxyphenyl)amino)-2-oxoacetyl)-N-((S)-3-oxo-1-((S)-2-oxopyrrolidin-3-yl)-4-(trifluoromethoxy)butan-2-yl)-5-azaspiro[2.4]heptane-6-carboxamide] yielded an EC50 of under 0.05 µM.
In the case of C[C@@H](C[C@@H](O)C(=O)N1CC2(CC2)C[C@H]1C(=O)N[C@@H](C[C@@H]1CCNC1=O)C(=O)COC(F)(F)F)C(F)(F)F [Compound 427, (S)-N-((S)-3-oxo-1-((S)-2-oxopyrrolidin-3-yl)-4-(trifluoromethoxy)butan-2-yl)-5-((2R,4S)-5,5,5-trifluoro-2-hydroxy-4-methylpentanoyl)-5-azaspiro[2.4]heptane-6-carboxamide], the EC50 is reported as under 0.05 µM.
CC(C)(C)[C@H](NC(=O)OCc1ccccc1)C(=O)N1C[C@H]2[C@@H]([C@H]1C(=O)N[C@@H](C[C@@H]1CCNC1=O)C(=O)COC(F)(F)F)C2(C)C [Compound 620, benzyl ((S)-1-((1R,2S,5S)-6,6-dimethyl-2-(((S)-3-oxo-1-((S)-2-oxopyrrolidin-3-yl)-4-(trifluoromethoxy)butan-2-yl)carbamoyl)-3-azabicyclo[3.1.0]hexan-3-yl)-3,3-dimethyl-1-oxobutan-2-yl)carbamate] gave an EC50 of under 0.05 µM.

Same assay, conditions: Severe acute respiratory syndrome coronavirus 2, HeLa-ACE2, 24 h; read-out: EC50, uM (Hela)
In the case of O=C1NCC[C@H]1C[C@H](NC(=O)[C@@H]1CC2(CC2)CN1C(=O)C1(NC(=O)C(F)(F)F)CCC(F)(F)CC1)C(=O)COC(F)(F)F [Compound 680, (S)-5-(4,4-difluoro-1-(2,2,2-trifluoroacetamido)cyclohexane-1-carbonyl)-N-((S)-3-oxo-1-((S)-2-oxopyrrolidin-3-yl)-4-(trifluoromethoxy)butan-2-yl)-5-azaspiro[2.4]heptane-6-carboxamide], the EC50 is reported as 0.2 to 0.5 µM.
